Experimental findings from EP0090603A2, “Antibacterial compounds” (BEECHAM GROUP PLC, priority 1982, dated 1983) are described below.

Structures are written as SMILES. Values after ≈ are worked out from the molar mass of the structure shown.

One assay relates to M. suipneumoniae Str. 11. Description: MIC against Mycoplasma, in vitro agar dilution. The assay is classed as cell-based. Particulars: Mesomycoplasma hyopneumoniae, STR.11, 144 h; Friis broth solidified with 0.9% agarose, 10^3 to 10^5 C.F.U., 6 days at 37°C; read-out: MIC's against M. suipneumoniae Str. 11.
Assay [1] concerns M. suipneumoniae J2206/183^b. In words: MIC against Mycoplasma, in vitro agar dilution. The assay is classed as cell-based. Particulars: Mesomycoplasma hyopneumoniae, 144 h; Friis broth solidified with 0.9% agarose, 10^3 to 10^5 C.F.U., 6 days at 37°C; read-out: MIC's against M. suipneumoniae J2206/183^b.
A further assay relates to M. suipneumoniae LABER. In words: MIC against Mycoplasma, in vitro agar dilution. It is filed as cell-based. As to conditions: Mesomycoplasma hyopneumoniae, 144 h; Friis broth solidified with 0.9% agarose, 10^3 to 10^5 C.F.U., 6 days at 37°C; read-out: MIC's against M. suipneumoniae LABER. In general terms: Agar dilution tests growth on a series of plates holding different concentrations.

The test system of another assay is M. suipneumoniae TAM 6N. Description: MIC against Mycoplasma, in vitro agar dilution. It is filed as cell-based. As to conditions: Mesomycoplasma hyopneumoniae, TAM6N, 144 h; Friis broth solidified with 0.9% agarose, 10^3 to 10^5 C.F.U., 6 days at 37°C; read-out: MIC's against M. suipneumoniae TAM 6N.
In assay [2] the test system is M. suipneumoniae ATCC 25095. In words: MIC against Mycoplasma, in vitro agar dilution. It is filed as cell-based. Particulars: Mesomycoplasma hyopneumoniae, ATCC25095, 144 h; Friis broth solidified with 0.9% agarose, 10^3 to 10^5 C.F.U., 6 days at 37°C; read-out: MIC's against M. suipneumoniae ATCC 25095.
Assay [3] relates to M. suipneumoniae NCTC 10110. Description: MIC against Mycoplasma, in vitro agar dilution. It is filed as cell-based. Particulars: Mesomycoplasma hyopneumoniae, NCTC10110, 144 h; Friis broth solidified with 0.9% agarose, 10^3 to 10^5 C.F.U., 6 days at 37°C; read-out: MIC's against M. suipneumoniae NCTC 10110.
A further assay relates to M. hyorhinis ATCC 23234. In words: MIC against Mycoplasma, in vitro agar dilution. The assay is classed as cell-based. As to conditions: Mesomycoplasma hyorhinis, ATCC23234, 144 h; Friis broth solidified with 0.9% agarose, 10^3 to 10^5 C.F.U., 6 days at 37°C; read-out: MIC's against M. hyorhinis ATCC 23234.
A further assay relates to M. hyorhinis ATCC 25021. In words: MIC against Mycoplasma, in vitro agar dilution. It is filed as cell-based. Particulars: Mesomycoplasma hyorhinis, ATCC25021, 144 h; Friis broth solidified with 0.9% agarose, 10^3 to 10^5 C.F.U., 6 days at 37°C; read-out: MIC's against M. hyorhinis ATCC 25021.
The test system of assay [4] is M. bovigenitalium ATCC 14173. In words: MIC against Mycoplasma, in vitro agar dilution. The assay is classed as cell-based. Particulars: 144 h; Friis broth solidified with 0.9% agarose, 10^3 to 10^5 C.F.U., 6 days at 37°C; read-out: MIC's against M. bovigenitalium ATCC 14173.
The test system of a further assay is M. dispar NCTC 10125. Description: MIC against Mycoplasma, in vitro agar dilution. It is filed as cell-based. Particulars: 144 h; Friis broth solidified with 0.9% agarose, 10^3 to 10^5 C.F.U., 6 days at 37°C; read-out: MIC's against M. dispar NCTC 10125.
The next assay deals with M. gallisepticum S6. Description: MIC against Mycoplasma, in vitro agar dilution. It is filed as cell-based. Particulars: Mycoplasmoides gallisepticum, S6, 144 h; Friis broth solidified with 0.9% agarose, 10^3 to 10^5 C.F.U., 6 days at 37°C; read-out: MIC's against M. gallisepticum S6.
For a further assay, the system named is E. coli NCTC 10418. In words: MIC against Veterinary Bacteria, in vitro agar dilution. Particulars: Escherichia coli, NCTC10418, 18 h, read-out: MIC's against E. coli NCTC 10418.
The subject of a further assay is E. coli E1. The assay is described as above. As to conditions: Escherichia coli, E1, 18 h, read-out: MIC's against E. coli E1.
The test system of another assay is S. dublin S7. The description is as above. As to conditions: Salmonella enterica, S7, 18 h, read-out: MIC's against S. dublin S7.
The subject of a further assay is Bord. bronchiseptica B09. The description is as above. As to conditions: Bordetella bronchiseptica, B09, 18 h, read-out: MIC's against Bord. bronchiseptica B09.
In the next assay the test system is Past. multocida PA1. The description is as above. Particulars: Pasteurella multocida, PA1, 18 h, read-out: MIC's against Past. multocida PA1.
The test system of another assay is Past. multocida PA2. The assay is described as above. Particulars: Pasteurella multocida, PA2, 18 h, read-out: MIC's against Past. multocida PA2.
Assay [5] concerns Erysipelothrix rhusiopathiae NCTC 8163. Described as above. Particulars: Erysipelothrix rhusiopathiae, NCTC8163, 18 h, read-out: MIC's against Erysipelothrix rhusiopathiae NCTC 8163.
Procedure: (§1) The activity of the compounds of the Examples against various veterinarily important bacteria, was assayed in vitro using two-fold serial dilutions in Diagnostic Sensitivity Test Agar inoculated with 10^4 organisms.
For assay [6], the system named is Staph. aureus B4 (pen. resistant). The description is as above. Particulars: Staphylococcus aureus, 18 h, read-out: MIC's against Staph. aureus B4 (pen. resistant).
Procedure: as §1
Assay [7] concerns Staph. aureus 152 (pen. sens). The description is as above. As to conditions: Staphylococcus aureus, 18 h, read-out: MIC's against Staph. aureus 152 (pen. sens).
Procedure: as §1
In another assay the test system is Staph. aureus Oxford. The description is as above. Particulars: Staphylococcus aureus, 18 h, read-out: MIC's against Staph. aureus Oxford.
In assay [8] the test system is Strep. suis (group D) SPS11. Described as above. Particulars: Streptococcus suis, 18 h, read-out: MIC's against Strep. suis (group D) SPS11.
Procedure: as §1
A further assay concerns M. pneumoniae ATCC 15492. Description: MIC against Mycoplasma, in vitro agar dilution. The assay is classed as cell-based. As to conditions: Mycoplasmoides pneumoniae, ATCC15492, 144 h; Friis broth solidified with 0.9% agarose, 10^3 to 10^5 C.F.U., 6 days at 37°C; read-out: MIC's against M. pneumoniae ATCC 15492.

Procedure for Bord. bronchiseptica B09: as §1
Procedure for E. coli E1: as §1
Procedure for E. coli NCTC 10418: as §1
Procedure for Past. multocida PA1: as §1
Procedure for Past. multocida PA2: as §1
Procedure for S. dublin S7: as §1
Procedure for Staph. aureus Oxford: as §1

In the case of `COC(=O)C(C)=C(C)CC1OCC(CC2OC2C(C)C(C)O)C(O)C1O` [Example 2, Methyl 4-[5S-(2S,3S-epoxy-5S-hydroxy-4S-methylhexyl)-3R,4R-dihydroxytetrahydropyran-2S-yl]-2,3-dimethylbut-2(E)-enoate], the MIC in the assay with M. suipneumoniae Str. 11 stood at 5 µg/mL (≈ 13.4 µM); in assay [1] it was 5 µg/mL (≈ 13.4 µM); in the assay on M. suipneumoniae LABER it was 5 µg/mL (≈ 13.4 µM); in the assay on M. suipneumoniae TAM 6N, 10 µg/mL (≈ 26.8 µM); in [2], 5 µg/mL (≈ 13.4 µM); in [3], 5 µg/mL (≈ 13.4 µM). Also, the MIC in the assay with M. hyorhinis ATCC 23234 was 5 µg/mL (≈ 13.4 µM); in the assay with M. hyorhinis ATCC 25021 it was 5 µg/mL (≈ 13.4 µM); in assay [4], 0.5 µg/mL (≈ 1.34 µM); in the assay with M. dispar NCTC 10125, 1 µg/mL (≈ 2.68 µM); with M. gallisepticum S6, above 10 µg/mL; with E. coli NCTC 10418, above 80 µg/mL. The MIC in the assay on E. coli E1 was above 80 µg/mL; in the assay on S. dublin S7 it was above 80 µg/mL; in the assay with Bord. bronchiseptica B09, 40 µg/mL (≈ 107 µM); in the assay with Past. multocida PA1, 10 µg/mL (≈ 26.8 µM); with Past. multocida PA2, 5 µg/mL (≈ 13.4 µM); in assay [5] it was above 80 µg/mL. Also, the MIC is 5 µg/mL (≈ 13.4 µM) in [6], 5 µg/mL (≈ 13.4 µM) in assay [7], 5 µg/mL (≈ 13.4 µM) in the assay with Staph. aureus Oxford and above 80 µg/mL in assay [8].

For `CC(CC1OCC(CC2OC2C(C)C(C)O)C(O)C1O)=C(C)C(=O)OCc1cccc([N+](=O)[O-])c1` [Example 3, m-Nitrobenzyl 4-[5S-(2S,3S-epoxy-5S-hydroxy-4S-methylhexyl)-3R,4R-dihydroxytetrahydropyran-2S-yl]-2,3-di-methylbut-2(E)-enoate], the MIC in the assay with M. suipneumoniae Str. 11 was determined as 0.05 µg/mL (≈ 0.101 µM); in assay [1] it was 0.1 µg/mL (≈ 0.203 µM); with M. suipneumoniae LABER it was 0.05 µg/mL (≈ 0.101 µM); in the assay on M. suipneumoniae TAM 6N it was 0.1 µg/mL (≈ 0.203 µM); in [2] it was 0.025 µg/mL (≈ 0.0507 µM); in assay [3], 0.05 µg/mL (≈ 0.101 µM). The MIC in the assay on M. hyorhinis ATCC 23234 was 0.025 µg/mL (≈ 0.0507 µM); in the assay with M. hyorhinis ATCC 25021, 0.025 µg/mL (≈ 0.0507 µM); in [4] it was 0.025 µg/mL (≈ 0.0507 µM); in the assay with M. dispar NCTC 10125, below 0.01 µg/mL; in the assay on M. gallisepticum S6, 5 µg/mL (≈ 10.1 µM); in the assay on M. pneumoniae ATCC 15492, 2.5 µg/mL (≈ 5.07 µM). Besides, the MIC in the assay on E. coli NCTC 10418 was above 80 µg/mL; in the assay with E. coli E1 it was above 80 µg/mL; with S. dublin S7, above 80 µg/mL; in the assay on Bord. bronchiseptica B09, 80 µg/mL (≈ 162 µM); in the assay on Past. multocida PA1 it was 2.5 µg/mL (≈ 5.07 µM); in the assay with Past. multocida PA2 it was 1.25 µg/mL (≈ 2.53 µM). Also, the MIC came to 40 µg/mL (≈ 81 µM) in assay [5]; 1.25 µg/mL (≈ 2.53 µM) in assay [6]; 1.25 µg/mL (≈ 2.53 µM) in assay [7]; 1.25 µg/mL (≈ 2.53 µM) in the assay with Staph. aureus Oxford; 10 µg/mL (≈ 20.3 µM) in assay [8].

Regarding `CCOC(=O)C(C)=C(C)CC1OCC(CC2OC2C(C)C(C)O)C(O)C1O` [Example 1, Ethyl 4-[5S-(2S,3S-epoxy-5S-hydroxy-4S-methylhexyl)-3R,4R-dihydroxytetrahydropyran-2S-yl]-2,3-dimethylbut-2(E)-enoate], the MIC with M. suipneumoniae Str. 11 stood at 1 µg/mL (≈ 2.59 µM); in [1], 2.5 µg/mL (≈ 6.47 µM); with M. suipneumoniae LABER it was 1 µg/mL (≈ 2.59 µM); with M. suipneumoniae TAM 6N, 2.5 µg/mL (≈ 6.47 µM); in assay [2] it was 1 µg/mL (≈ 2.59 µM); in assay [3], 1 µg/mL (≈ 2.59 µM). Besides, the MIC with M. hyorhinis ATCC 23234 was 0.5 µg/mL (≈ 1.29 µM); in the assay with M. hyorhinis ATCC 25021, 0.5 µg/mL (≈ 1.29 µM); in [4], 0.05 µg/mL (≈ 0.129 µM); in the assay on M. dispar NCTC 10125, 0.25 µg/mL (≈ 0.647 µM); in the assay with M. gallisepticum S6, above 10 µg/mL; in the assay on M. pneumoniae ATCC 15492, 10 µg/mL (≈ 25.9 µM). Also, the MIC with E. coli NCTC 10418 is above 80 µg/mL; in the assay with E. coli E1, above 80 µg/mL; in the assay with S. dublin S7 it was above 80 µg/mL; with Bord. bronchiseptica B09, 80 µg/mL (≈ 207 µM); with Past. multocida PA1, 2.5 µg/mL (≈ 6.47 µM); in the assay on Past. multocida PA2 it was 1.25 µg/mL (≈ 3.23 µM). Moreover, the MIC in assay [5] is 80 µg/mL (≈ 207 µM); in [6], 0.625 µg/mL (≈ 1.62 µM); in assay [7], 0.625 µg/mL (≈ 1.62 µM); with Staph. aureus Oxford it was 0.625 µg/mL (≈ 1.62 µM); in [8], above 80 µg/mL.

Turning to `CC(CC1OCC(CC2OC2C(C)C(C)O)C(O)C1O)=C(C)C(=O)O` [Example 4, Sodium 4-[5S-(2S, 35-epoxy-5S-hydroxy-4S-methylhexyl)-3R,4R-dihydroxytetrahydropyran-2S-yl]-2,3-dimethylbut-2(E)-enoate], the MIC in the assay on M. suipneumoniae Str. 11 is 0.1 µg/mL; in assay [1] it was 0.25 µg/mL; in the assay with M. suipneumoniae LABER it was 0.1 µg/mL; with M. suipneumoniae TAM 6N, 0.25 µg/mL; in assay [2], 0.25 µg/mL; in assay [3], 0.25 µg/mL. Further, the MIC in the assay with M. hyorhinis ATCC 23234 came out at 0.1 µg/mL; in the assay on M. hyorhinis ATCC 25021 it was 0.1 µg/mL; in assay [4], 0.05 µg/mL; in the assay with M. dispar NCTC 10125 it was 0.05 µg/mL; in the assay with M. gallisepticum S6, 5 µg/mL; in the assay on M. pneumoniae ATCC 15492 it was 5 µg/mL. In addition, the MIC was above 80 µg/mL in the assay with E. coli NCTC 10418; above 80 µg/mL in the assay on E. coli E1; above 80 µg/mL in the assay on S. dublin S7; 40 µg/mL in the assay on Bord. bronchiseptica B09; 5 µg/mL in the assay on Past. multocida PA1; 2.5 µg/mL with Past. multocida PA2. For the same compound, the MIC in assay [5] was 80 µg/mL; in assay [6] it was 1.25 µg/mL; in assay [7] it was 1.25 µg/mL; with Staph. aureus Oxford it was 1.25 µg/mL; in [8], 20 µg/mL.
